ChEMBL document CHEMBL1201862, “PubChem BioAssay data set” (2004)
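Five compound concentrations were applied to cells in 96-well plates for 48 hours; endpoints were derived by simple linear interpolation of the resulting dose-response curve. At the GI50, growth is halved.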 Activity calls are given as the source filed them. No stated cut-off is given here; in the data, active = GI50 up to about 1.1 µM and inactive = higher.

Experiments:
Assay in all cases: growth of human tumour cells (NCI), 48 h
[1] = tested on: Malme-3M
[2] = tested on: EKVX
[3] = tested on: RXF 393
[4] = tested on: RPMI-8226
[5] = tested on: OVCAR-8
[6] = tested on: OVCAR-3
[7] = tested on: UO-31
[8] = tested on: HOP-62
[9] = tested on: SK-MEL-28
[10] = tested on: IGROV-1
[11] = tested on: OVCAR-5
[12] = tested on: HCT-15
[13] = tested on: 786-0
[14] = tested on: UACC-257
[15] = tested on: SW-620
[16] = tested on: NCI-H23
[17] = tested on: LOX IMVI
[18] = tested on: MCF7

Structure (SMILES) | GI50 [1] | GI50 [2] | GI50 [3] | GI50 [4] | GI50 [5] | GI50 [6] | GI50 [7] | GI50 [8] | GI50 [9] | GI50 [10] | GI50 [11] | GI50 [12] [µM] | GI50 [13] | GI50 [14] | GI50 [15] | GI50 [16] | GI50 [17] | GI50 [18]
N#CC1C(=O)NC(=O)C1=O (stereo unspecified) | > 100 µM (inactive) | > 100 µM (inactive) | > 100 µM (inactive) | > 100 µM (inactive) | > 100 µM (inactive) | > 100 µM (inactive) | > 100 µM (inactive) | > 100 µM (inactive) | > 100 µM (inactive) | > 100 µM (inactive) | > 100 µM (inactive) | > 100 | > 100 µM (inactive) | > 100 µM (inactive) | > 100 µM (inactive) | > 100 µM (inactive) | > 100 µM (inactive) | 
CC(NC(=O)OC(C)(C)C)C(=O)NC(Cc1ccccc1)C(=O)NCC(=O)Oc1c(Cl)c(Cl)c(Cl)c(Cl)c1Cl (stereo unspecified) | 20.7 µM (inactive) | 17.8 µM (inactive) | 17.2 µM (inactive) | 23.2 µM (inactive) | 19.6 µM (inactive) |  | 14.2 µM (inactive) | 18.7 µM (inactive) | 20.7 µM (inactive) | 22.8 µM (inactive) | 19 µM (inactive) | > 10 | 21.2 µM (inactive) | 20 µM (inactive) | 20.1 µM (inactive) | 18.7 µM (inactive) |  | 21.9 µM (inactive)
Cn1cc2ccccc2c1-c1nc(F)nc(Oc2ccc3c(c2)CC[C@@H]2C3CC[C@@]3(C)C2CC[C@@H]3O)n1 (stereo partly specified) | 15.5 µM (inactive) | 15.6 µM (inactive) | 3.08 µM (inactive) | 5.94 µM (inactive) | 7.45 µM (inactive) | 9.33 µM (inactive) | 24.4 µM (inactive) | 9.59 µM (inactive) | 10.4 µM (inactive) | 6.78 µM (inactive) | 18.6 µM (inactive) | 6.18 | 8.91 µM (inactive) | 21.3 µM (inactive) | 7.35 µM (inactive) | 10.3 µM (inactive) | 5.79 µM (inactive) | 
Nc1nc(S)nc(C(=O)Nc2ccc(Cl)c(Cl)c2)c1-c1ccc(Cl)cc1 | > 100 µM (inactive) | > 100 µM (inactive) | > 100 µM (inactive) | 62.7 µM (inactive) | > 100 µM (inactive) | > 100 µM (inactive) | > 100 µM (inactive) | > 100 µM (inactive) | > 100 µM (inactive) | > 100 µM (inactive) | > 100 µM (inactive) | > 100 | > 100 µM (inactive) | > 100 µM (inactive) | > 100 µM (inactive) | > 100 µM (inactive) | > 100 µM (inactive) | 
COc1ccc(C2C3=CONC3CC3CCCCC32)cc1 (stereo unspecified) | 43.3 µM (inactive) |  |  | 28.8 µM (inactive) | 85.7 µM (inactive) | 39.8 µM (inactive) | 38 µM (inactive) | > 100 µM (inactive) | 68.4 µM (inactive) | > 100 µM (inactive) | > 100 µM (inactive) |  | 46.7 µM (inactive) | 80.2 µM (inactive) | > 100 µM (inactive) | 35.2 µM (inactive) | 69.7 µM (inactive) | 12.8 µM (inactive)
CS(=O)(=O)OCCN1CCN(C(=O)c2cccc3c(Nc4ccc(S(N)(=O)=O)cc4)c4ccccc4nc23)CC1 | > 100 µM (inactive) | > 100 µM (inactive) | > 55.2 µM (inactive) | > 46.5 µM (inactive) | > 100 µM (inactive) | > 100 µM (inactive) | > 100 µM (inactive) | > 100 µM (inactive) | > 100 µM (inactive) | > 100 µM (inactive) | > 100 µM (inactive) | > 42.9 | > 100 µM (inactive) | > 66.7 µM (inactive) | > 39.3 µM (inactive) | > 100 µM (inactive) | > 40.6 µM (inactive) | 
C(/COc1cccnc1)=N\NC1=NCCN1 | > 100 µM (inactive) | > 100 µM (inactive) | > 100 µM (inactive) | > 100 µM (inactive) | > 100 µM (inactive) | > 100 µM (inactive) | > 100 µM (inactive) | > 100 µM (inactive) | > 100 µM (inactive) | > 100 µM (inactive) | > 100 µM (inactive) | > 100 | > 100 µM (inactive) | > 100 µM (inactive) | > 100 µM (inactive) | > 100 µM (inactive) | > 100 µM (inactive) | 
CCOc1ccc(/C=N\N2C(=O)c3ccccc3C2=O)cc1 | > 100 µM (inactive) | > 100 µM (inactive) | > 100 µM (inactive) | > 100 µM (inactive) | > 100 µM (inactive) | > 100 µM (inactive) | > 100 µM (inactive) | > 100 µM (inactive) | > 100 µM (inactive) | > 100 µM (inactive) | > 100 µM (inactive) | > 100 | > 100 µM (inactive) | > 100 µM (inactive) | > 100 µM (inactive) | > 100 µM (inactive) | > 100 µM (inactive) | 
CCOC(=O)c1sc2c(C(=O)OCC)n3ccccc3c2c1N | > 100 µM (inactive) | 59.4 µM (inactive) | 20.2 µM (inactive) | > 100 µM (inactive) | 61.9 µM (inactive) | > 100 µM (inactive) | 26.1 µM (inactive) | 19.2 µM (inactive) | > 100 µM (inactive) | > 100 µM (inactive) | > 100 µM (inactive) | > 100 | 36.2 µM (inactive) | > 100 µM (inactive) | > 100 µM (inactive) | 43.6 µM (inactive) | > 100 µM (inactive) | 
O=C1/C(=N\O)C2CCC1C2 (stereo unspecified) | > 100 µM (inactive) | > 100 µM (inactive) | > 100 µM (inactive) | > 100 µM (inactive) | > 100 µM (inactive) | > 100 µM (inactive) | > 100 µM (inactive) | > 100 µM (inactive) | > 100 µM (inactive) | > 100 µM (inactive) | > 100 µM (inactive) | > 100 | > 100 µM (inactive) | > 100 µM (inactive) | > 100 µM (inactive) | > 100 µM (inactive) | > 100 µM (inactive) | 
C/C(=C\CC[C@]1(C)OC(C)(C)OC1CC/C(C)=C/CO[Si](c1ccccc1)(c1ccccc1)C(C)(C)C)CC/C=C/CO[Si](C)(C)C(C)(C)C (stereo partly specified) | > 100 µM (inactive) | > 100 µM (inactive) | > 100 µM (inactive) | > 100 µM (inactive) | > 100 µM (inactive) | 74.5 µM (inactive) | > 100 µM (inactive) | > 100 µM (inactive) | > 100 µM (inactive) | > 100 µM (inactive) | > 100 µM (inactive) | > 100 | > 100 µM (inactive) | > 100 µM (inactive) | > 100 µM (inactive) | > 100 µM (inactive) | > 100 µM (inactive) | 
O=CN/C=C/c1ccc(O)c(O)c1 | > 100 µM (inactive) | > 100 µM (inactive) | > 100 µM (inactive) | > 100 µM (inactive) | > 100 µM (inactive) | > 100 µM (inactive) | > 100 µM (inactive) | > 100 µM (inactive) | > 100 µM (inactive) | > 100 µM (inactive) | > 100 µM (inactive) | > 100 | > 100 µM (inactive) | > 100 µM (inactive) | > 100 µM (inactive) | > 100 µM (inactive) | > 100 µM (inactive) | 
